The values that follow come from patent US10633630B2, “Acceleration of Mycobacterium growth” (ST GEORGE'S HOSPITAL MEDICAL SCHOOL, priority 2014, dated 2020).

Non-standard residues stand in square brackets, D forms with d. No end group written: not given here. βAla = NCCC(=O)O

For assay [1], the system named is Mycobacterium avium subspecies paratuberculosis (MAP). The experiment in a line: Screen of TiKa peptide supplements for growth effects on MAP cultures (Example 1). It is filed as cell-based. The following applies: supplemented at 20 mg/ml (final); over a 20 day period; vs identical inocula with no added supplement. How it is done: FX1=reduction in lag phase, FX2=increase in division rate.
The lag phase and division rate can be determined using routine methods in the art. Typically, growth and expansion of cells of a bacterial culture is determined by monitoring the optical density (OD) of the culture (e.g. the OD600 or the OD800 as illustrated in the Examples section below). The lag phase and the division rate can be determined from plots of the OD over time.
Using Mycobacterium avium subspecies paratuberculosis (MAP) as a target organism a bank of 109 short L enantiomer peptides and one D enantiomer peptide (TiKa 14D) were screened for the ability to supplement defined media (see below) to produce growth effects that produce biomass more rapidly than identical inocula of MAP with no added supplement.
The effects can be defined as: • A significant decrease in lag time (i.e the time it takes to recover from subculture and begin growing exponentially). With standard low inoculum this is at least 5 days but there is evidence that this phase can also be greatly extended in low inocula (see FIGS. 3 and 4). • An increase in division rate.

Assay [2] in a line: Growth curves at various concentrations of peptide (Example 5). It is filed as cell-based. The following applies: for doubling time relative to the control / lag phase relative to the control without supplement: above the optimum concentration; for effects on the rate of division: below the optimum concentration; for optimum concentration of supplement: concentrations up to 80 μg/ml tested. How it is done:
Part (A) presents results for the TiKa 14D peptide and part (B) presents results for the TiKa 102 peptide.
TiKa 14D and TiKa 102 were tested to identify the optimum concentration of supplement. Results are presented in FIGS. 5A and B for concentrations up to 80 μg/ml. […] Below the optimum concentration, the lag phase was either not affected (10 μg/ml of TiKa 14D) or was inhibited relative to the control (slightly for TiKa 14D at 5 μg/ml and for TiKa 102 at 20 μg/ml).

For assay [3], the system named is Mycobacterium avium subspecies paratuberculosis. The assay is classed as cell-based. Particulars: TiKa 14D 20 μg/ml.
Assay [4] has as its system cultures with different starting OD600 values. The assay is described as follows: Effects of TiKa 14D on cultures with different starting OD600 values (Example 3). It is filed as cell-based. The following applies: 20 μg/ml. The procedure:
The effects of TiKa 14D on cultures with different starting OD600 values were tested. The TiKa 14D was present at a concentration of 20 μg/ml.
As shown in this Figure, at a starting OD600 of 0.2 TiKa 14D reduced the time to reach an OD600 of 0.6 by 7 days relative to a control without the supplement. At a starting OD600 of approximately 0.4, TiKa 14D reduced the time to reach an OD600 of 0.6 by 2 days relative to the control without the supplement.

In a further assay the test system is MTB. The experiment in a line: Time to positivity in BacTAlert liquid media system (Example 4). It is filed as cell-based.
In assay [5] the test system is Mycobacterium tuberculosis.

In the case of RLARIVVIRVAR-BB-K(biotin) [TiKa 103], in assay [1], the “effect on MAP test culture (decrease in lag time, increase in division rate)” value is “positive effects”.

Regarding RRWRIVVIRVRR [TiKa 69], the “effect on MAP test culture (decrease in lag time, increase in division rate)” value in assay [1] is given as “positive effects”.

In the case of RRWRIVVIRVRR-BB-K(biotin) [TiKa 102], the “effect on MAP test culture (decrease in lag time, increase in division rate)” value in assay [1] is listed as “positive effects”. In assay [2], the “doubling time relative to the control” value is listed as “still also reduced”, the “lag phase relative to the control without supplement” value is listed as “still improved”, the “effects on the rate of division” value is “decreased proportionally” and the “optimum concentration of supplement” value amounted to 40 µg/mL. Also, in assay [2] (below the optimum concentration: 20 μg/ml), the “lag phase relative to the control” value is recorded as “inhibited”.

As to “RRWRIVVIRVRR-bA-bA-C (RRWRIVVIRVRR[βAla][βAla]C) [TiKa 86]”, the “effect on MAP test culture (decrease in lag time, increase in division rate)” value in assay [1] was “positive effects”.

Turning to WKIVFWWRR [TiKa 14D], the “effect on MAP test culture (decrease in lag time, increase in division rate)” value in assay [1] is “positive effects”. The “effect on growth curve” value in assay [3] is on record as “positive effects”. Also, the “reduction of the time to reach an OD600 of 0.6 relative to a control without the supplement” value in assay [4] (starting OD600 of 0.2) worked out at 7 days. The “reduction of the time to reach an OD600 of 0.6 relative to a control without the supplement” value in assay [4] (starting OD600 of approximately 0.4) is on record as 2 days. In the assay on MTB, the “Time to Positivity (TTP) compared to control media” value is reported as “decreased”. In addition, in assay [2], the “doubling time relative to the control” value is on record as “still also reduced”, the “lag phase relative to the control without supplement” value is on record as “still improved”, the “effects on the rate of division” value is on record as “decreased proportionally” and the “optimum concentration of supplement” value came out at 20 µg/mL. Further, the “lag phase relative to the control” value in assay [2] (below the optimum concentration: 5 μg/ml) is recorded as “inhibited”. The “lag phase relative to the control” value in assay [2] (below the optimum concentration: 10 μg/ml) is “not affected”. In addition, in assay [5], the “effect on growth curve” value is “positive effects”.
